# Columns and labels:
# [1] = test system: Vascular smooth muscle cells (BO54); assay: Scratch-migration assay; assay type: cell-based, baboon; parameters: key: −=no toxicity; +1=minimal; +2=mild; +3=moderate; +4=marked toxicity; settings: Continuous Exposure
# Description: (§1) Scratch assays to determine the extent of smooth muscle cell migration inhibition by cytochalasin B were performed in accordance with the following protocol:
# (§2) Vascular smooth muscle cells (BO54) were derived from explants of baboon aortic smooth muscle, as described in Example 10. The cells were grown in flat bottom, six well tissue culture plates, which hold about 5 ml of medium. The vascular smooth muscle cells were plated at 200,000 cells/well and placed at 37° C. in a humidified 5% CO2 incubator for 18 hours. The wells were then scratched with a sterile portion of a single edge razor blade that was held by clamp or pliers and was brought aseptically into contact with the bottom of the well at a 90° angle. The cells from a small area along the scratch were removed by a sterile cotton tipped applicator while the blade was in contact with the bottom of the well. After incubation, the presence of cells in the “scratched” area is indicative of cell migration across the scratch line.
# (§3) Briefly, a stock solution of cytochalasin B (Sigma Chemical Co.) in dimethyl sulfoxide (DMSO) at 1 mg/ml was prepared. Test dilutions of cytochalasin B or control medium were added. Each experiment included two sets of plates:
# (§4) A set: Test agent exposure for 1, 3, 6, 8 and 10 days only; and
# (§5) B set: Test agent exposure for 1, 3, 6, 8 and 10 days, followed by a seven day recovery time with control medium.
# Both sets of plates were fixed (10% formalin in PBS) and stained (0.02% crystal violet) at the end of the timed exposures. Test concentrations for cytochalasin B were 1, 0.1 and 0.01 μg/ml, and a negative medium control was included. […]
# In this Table, “M” indicates Migration Grade, wherein −=no migration; +1=minimal; +2=mild; +3=moderate; and +4=marked (maximum density; limit of cell contact inhibition) migration of vascular smooth muscle cells into the cleared area adjacent to the scratch. […] The migration results are expressed as “Grade in the Cleared Area of the Well/Grade in an Undisturbed Region of the Well.” The toxicity values represent a grade for all cells in each well.
# [2] = test system: balloon traumatized pig femoral artery; assay: Sustained release adventitial wraps on balloon traumatized pig femoral artery (Table 16, Group 12); assay type: in vivo; settings: Group 12: 30% wt/wt loaded silicone wraps
# Excerpt: To determine the efficacy of the local, sustained release dosage forms of cytochalasin B or taxol to inhibit restenosis, cytochalasin B or taxol in a supporting structure, e.g., a “wrap,” was applied to the adventitial tissue surrounding a balloon traumatized rabbit carotid artery (Groups 1-11) or a balloon traumatized pig femoral artery (Group 12) (Table 16).
# While there was intimal proliferation in the arteries 3 weeks later, the proliferation was still less than the proliferation observed for the controls.
# [3] = test system: Vascular smooth muscle cells (BO54); assay: Scratch-migration assay; assay type: cell-based, baboon; parameters: key to Migration Grade in an Undisturbed Region of the Well / Migration Grade in the Cleared Area of the Well: −=no migration; +1=minimal; +2=mild; +3=moderate; +4=marked (maximum density; limit of cell contact inhibition) migration
# Description: as §1, §2, §3, §4, §5
# Both sets of plates were fixed (10% formalin in PBS) and stained (0.02% crystal violet) at the end of the timed exposures. Test concentrations for cytochalasin B were 1, 0.1 and 0.01 μg/ml, and a negative medium control was included. Fresh medium and drug were supplied 3 times per week.
# In this Table, “M” indicates Migration Grade, wherein −=no migration; +1=minimal; +2=mild; +3=moderate; and +4=marked (maximum density; limit of cell contact inhibition) migration of vascular smooth muscle cells into the cleared area adjacent to the scratch. In this Table, “T” denotes a morphological Toxicity Grade, wherein −=no toxicity; +1=minimal; +2=mild; +3=moderate; and +4=marked toxicity. The migration results are expressed as “Grade in the Cleared Area of the Well/Grade in an Undisturbed Region of the Well.” The toxicity values represent a grade for all cells in each well.
# [4] = Tissue distribution of cytochalasin B after intravenous administration (TLC); assay type: in vivo, mice
# Description: Cytochalasin B was also administered intravenously to mice at 3.5 mg/kg (in methanol or Tween 20/carboxymethyl cellulose). Mice were sacrificed at 2 minutes, 15 minutes, 30 minutes, 3 hours and 12 hours after cytochalasin B administration and tissue extracts analyzed for cytochalasin by TLC. The maximal recovery of cytochalasin B from tissue extracts was 32%.
# [5] = test system: swine coronary arteries traumatized by embolectomy or over-sized PTCA balloon; assay: Swine coronary artery study, MIC catheter infusion, morphometry at 4 weeks (Table 15); assay type: in vivo; settings: 8.0 μg/ml
# Description: Swine coronary arteries were also traumatized by embolectomy or over-sized PTCA balloon, and then 8-16 ml of cytochalasin B at 8.0 μg/ml was infused into the arterial wall with a MIC catheter to achieve a therapeutic dose. Controls included a diluent control and a traumatized untreated control, and all animals were sacrificed 4 weeks after intervention and coronary arteries were fixed by perfusion. Morphometry was performed on selected sections from proximal, treated and distal segments of coronary arteries (Table 15).
# [6] = test system: Vascular smooth muscle (BO54) cells; assay type: cell-based, baboon
# [7] = 7-day Recovery Post Exposure, Day 1, 0.01 μg/mL
# [8] = 7-day Recovery Post Exposure, Day 1, 0.1 μg/mL
# [9] = 7-day Recovery Post Exposure, Day 1, 1.0 μg/mL
# [10] = 7-day Recovery Post Exposure, Day 3, 0.01 μg/mL
# [11] = 7-day Recovery Post Exposure, Day 3, 0.1 μg/mL
# [12] = 7-day Recovery Post Exposure, Day 6, 0.1 μg/mL
# [13] = 7-day Recovery Post Exposure, Day 6, 1.0 μg/mL
# [14] = 7-day Recovery Post Exposure, Day 8, 0.01 μg/mL
# [15] = 7-day Recovery Post Exposure, Day 8, 0.1 μg/mL
# [16] = 7-day Recovery Post Exposure, Day 8, 1.0 μg/mL
# [17] = 7-day Recovery Post Exposure, Day 10, 0.01 μg/mL
# [18] = 7-day Recovery Post Exposure, Day 10, 0.1 μg/mL
# [19] = 7-day Recovery Post Exposure, Day 10, 1.0 μg/mL
# [20] = Continuous Exposure, Day 1, 0.01 μg/mL
# [21] = Continuous Exposure, Day 1, 0.1 μg/mL
# [22] = Continuous Exposure, Day 6, 0.01 μg/mL
# [23] = Continuous Exposure, Day 6, 0.1 μg/mL
# [24] = Continuous Exposure, Day 8, 0.01 μg/mL
# [25] = Continuous Exposure, Day 8, 0.1 μg/mL
# [26] = Continuous Exposure, Day 10, 0.01 μg/mL
# [27] = Continuous Exposure, Day 10, 0.1 μg/mL
compound,measurement,setting,value
C=C1[C@@H](C)[C@H]2[C@H](Cc3ccccc3)NC(=O)[C@]23OC(=O)/C=C/[C@H](O)CCC[C@@H](C)C/C=C/[C@H]3[C@@H]1O [cytochalasin B],Toxicity Grade,"[1]; Day 6, 1.0 μg/mL",+4
same,Toxicity Grade,"[1]; Day 8, 1.0 μg/mL",+4
same,Toxicity Grade,"[1]; Day 10, 1.0 μg/mL",+4
same,intimal proliferation,[2],significantly inhibited intimal proliferation for the first two weeks
same,morphological toxicity grade,"[3]; 0.1 μg/ml, continuous exposure",−3 to +1
same,Migration Grade in an Undisturbed Region of the Well,[3]; [7],+4
same,Migration Grade in the Cleared Area of the Well,[3]; [7],+3
same,Migration Grade in an Undisturbed Region of the Well,[3]; [8],+4
same,Migration Grade in the Cleared Area of the Well,[3]; [8],+3
same,Migration Grade in an Undisturbed Region of the Well,[3]; [9],+3
same,Migration Grade in the Cleared Area of the Well,[3]; [9],+2
same,Migration Grade in an Undisturbed Region of the Well,[3]; [10],+4
same,Migration Grade in the Cleared Area of the Well,[3]; [10],+3
same,Migration Grade in an Undisturbed Region of the Well,[3]; [11],+4
same,Migration Grade in the Cleared Area of the Well,[3]; [11],+3
same,Migration Grade in an Undisturbed Region of the Well,"[3]; 7-day Recovery Post Exposure, Day 6, 0.01 μg/mL",+4/+4
same,Migration Grade in an Undisturbed Region of the Well,[3]; [12],+4
same,Migration Grade in the Cleared Area of the Well,[3]; [12],+3
same,Migration Grade in an Undisturbed Region of the Well,[3]; [13],+3
same,Migration Grade in the Cleared Area of the Well,[3]; [13],+2
same,Migration Grade in an Undisturbed Region of the Well,[3]; [14],+4/+4
same,Migration Grade in the Cleared Area of the Well,[3]; [14],+4/+4
same,Migration Grade in an Undisturbed Region of the Well,[3]; [15],+4
same,Migration Grade in the Cleared Area of the Well,[3]; [15],+3
same,Migration Grade in an Undisturbed Region of the Well,[3]; [16],+3
same,Migration Grade in the Cleared Area of the Well,[3]; [16],+2
same,Migration Grade in an Undisturbed Region of the Well,[3]; [17],+4/+4
same,Migration Grade in the Cleared Area of the Well,[3]; [17],+4/+4
same,Migration Grade in an Undisturbed Region of the Well,[3]; [18],+4/+4
same,Migration Grade in the Cleared Area of the Well,[3]; [18],+4/+4
same,Migration Grade in an Undisturbed Region of the Well,[3]; [19],+3
same,Migration Grade in the Cleared Area of the Well,[3]; [19],+2
same,Migration Grade in an Undisturbed Region of the Well,[3]; [20],+3
same,Migration Grade in the Cleared Area of the Well,[3]; [20],+1
same,Migration Grade in an Undisturbed Region of the Well,[3]; [21],+3
same,Migration Grade in the Cleared Area of the Well,[3]; [21],+1
same,Migration Grade in an Undisturbed Region of the Well,"[3]; Continuous Exposure, Day 1, 1.0 μg/mL",+2
same,Migration Grade in an Undisturbed Region of the Well,"[3]; Continuous Exposure, Day 3, 0.1 μg/mL",+4
same,Migration Grade in an Undisturbed Region of the Well,[3]; [22],+4
same,Migration Grade in the Cleared Area of the Well,[3]; [22],+3
same,Migration Grade in an Undisturbed Region of the Well,[3]; [23],+4
same,Migration Grade in the Cleared Area of the Well,[3]; [23],+2
same,Migration Grade in an Undisturbed Region of the Well,"[3]; Continuous Exposure, Day 6, 1.0 μg/mL",+2
same,Migration Grade in an Undisturbed Region of the Well,[3]; [24],+4
same,Migration Grade in the Cleared Area of the Well,[3]; [24],+3
same,Migration Grade in an Undisturbed Region of the Well,[3]; [25],+4
same,Migration Grade in the Cleared Area of the Well,[3]; [25],+2
same,Migration Grade in an Undisturbed Region of the Well,"[3]; Continuous Exposure, Day 8, 1.0 μg/mL",+2
same,Migration Grade in an Undisturbed Region of the Well,[3]; [26],+4
same,Migration Grade in the Cleared Area of the Well,[3]; [26],+3
same,Migration Grade in an Undisturbed Region of the Well,[3]; [27],+4
same,Migration Grade in the Cleared Area of the Well,[3]; [27],+2
same,Migration Grade in an Undisturbed Region of the Well,"[3]; Continuous Exposure, Day 10, 1.0 μg/mL",+2
same,acute toxicity,[4]; 3.5 mg/kg intravenously,no acute toxicity
same,maximal recovery from tissue extracts,[4]; 3.5 mg/kg intravenously,32%
same,tissue localization,[4]; 3.5 mg/kg intravenously,localized to the lung and the injection site
same,levels in tissues,[4]; 12 hours after administration,very low levels
same,arterial remodeling (area bounded by the external elastic lamina),[5],trend toward beneficial arterial remodeling
same,luminal area,[5],did not result in a statistically significant increase in luminal area
same,"MED, DNA assay",[6]; 5 minute exposure,10 µg/mL
same,DNA synthesis inhibition compared with protein synthesis inhibition,"[6]; 24 hour assays, 5% FBS, FIGS. 10A-10D",to a greater extent than they inhibited protein synthesis
same,"MED, DNA synthesis assay",[6]; 24 hour exposure,0.1 µg/mL

# Source: patent US6663881B2 (priority 1993, dated 2003)
